# From patent publication US7232837B2, “Stereoisomers with high affinity for adrenergic receptors” (McNeil-PPC, Inc., priority 1999, dated 2007)
# pIC50, pKi: −log10 of the molar value.
# How the values were obtained:
# Dog = assay: Dosage which raised mean arterial pressure 10%, dog; type: in vivo
# Sprague Dawley rats [1] = assay: Nasal airway pressure in non-histamine-challenged rats; settings: for Mean Decrease in Nasal Airway Pressure: rats, i.v., ± SEM
# Rat = assay: Dosage which raised mean arterial pressure 10%, rat; type: in vivo
# Sprague Dawley rats [2] = assay: Nasal airway pressure in histamine-challenged rats
# α2 adrenergic receptors = assay: Alpha-2 binding, 125iodoclonidine, canine brain (frontal cortex) membranes; set-up: species or system canine (mongrel dogs); settings: canine brain membranes; for pIC50: inhibition of specific p-iodoclonidine binding; for pKi: p-iodoclonidine
# Description: BRAIN ALPHA-2 RECEPTORS: Membranes of mongrel dogs were harvested from the canine frontal cortex and prepared as described for lung except that the final membrane protein concentration was adjusted to 0.5 mg/ml.
# ALPHA-2 BINDING ^125IODOCLONIDINE. […] Nonspecific binding was determined in separate incubations in the presence of 10 μM phentolamine. The final concentration of p-iodoclonidine was 44–45 pM in competition studies and between 50 pM and 10 nM in saturation experiments. Bound and free p-^125iodoclonidine were separated and the bound quantified as described above for the ICYP assays. […] BETA-2 BINDING, ^125IODOCYANOPINDOLOL (^125ICYP). […] Nonspecific binding was determined in separate incubations in the presence of 2 μM d,l-propranolol. Each experimental point was determined in triplicate. […] Incubations were terminated as described above for the α1 assays. Filters were placed into polyethylene tubes and the bound ligand was determined by gamma spectrometry (Sano et al., 1993).
# All data were analyzed with the aid of microcomputer nonlinear curve fitting programs (PRISM 2.0, Graphpad Software, San Diego Calif.).
# The receptors resident in each of the three membrane preparations were evaluated by standard saturation analysis following the addition of increasing concentrations of the appropriate radioligand. […] The radio ligand added for subsequent α2-displacement assays was adjusted to evaluate only the high affinity receptor. Contributions from p-iodoclonidine binding to imidazoline receptors in the α2-displacement assay were evaluated with epinephrine.
# The variable, I, is the concentration of tracer added and the variable, Kd, is the equilibrium dissociation constant empirically determined for this receptor population.
compound,measurement,setting,value
"CNC[C@@H](O)c1cccc(O)c1 [(+)-Phenylephrine, (+)-phenylephrine]","Dosage of Enantiomer which raised mean arterial pressure 10%, Dog",Dog,80 µg/kg
same,Mean Decrease in Nasal Airway Pressure,Sprague Dawley rats [1]; 5% of the dose that increased mean arterial pressure 10%,−4.00 ± 1.2
same,Mean Decrease in Nasal Airway Pressure,Sprague Dawley rats [1]; 10% of the dose that increased mean arterial pressure 10%,−2.5 ± 1.0
same,Mean Decrease in Nasal Airway Pressure,Sprague Dawley rats [1]; 25% of the dose that increased mean arterial pressure 10%,−4.6 ± 1.4
same,Mean Decrease in Nasal Airway Pressure,Sprague Dawley rats [1]; 50% of the dose that increased mean arterial pressure 10%,−10.2 ± 3.9
same,"nasal airway pressure, Post Drug","Sprague Dawley rats [1]; 100% dose i.v. (jugular vein), non-histamine-challenged rats",8 ± 0.3 mm H2O
same,"nasal airway pressure, % Change","Sprague Dawley rats [1]; 100% dose i.v., non-histamine-challenged rats, post drug vs control",−12.2 ± 3.1%
same,"nasal airway pressure, Control","Sprague Dawley rats [1]; before drug, non-histamine-challenged rats",9 ± 0.4 mm H2O
same,"Dosage of Enantiomer which raised mean arterial pressure 10%, Rat",Rat,24 µg
same,"nasal airway pressure, Post Drug",Sprague Dawley rats [2]; 100% dose i.v. after histamine challenge,5.5 ± 0.5 mm water
same,"nasal airway pressure, % Change","Sprague Dawley rats [2]; 100% dose i.v. after histamine challenge, post drug vs post histamine",−35.2 ± 2.5%
same,"nasal airway pressure, Post Histamine","Sprague Dawley rats [2]; after intranasal histamine 50 mM, before drug",8.7 ± 1.1 mm water
same,"nasal airway pressure, Control",Sprague Dawley rats [2]; before histamine and drug,6.5 ± 0.4 mm water
(+)-norpseudoephedrine,pIC50,α2 adrenergic receptors,5.30
same,pKi,α2 adrenergic receptors,5.40
(−)-norpseudoephedrine,pIC50,α2 adrenergic receptors,5.00
same,pKi,α2 adrenergic receptors,5.10
